Measured values reported in patent US20070021434A1, “NON-NUCLEOSIDE ANTI-HEPACIVIRUS AGENTS AND USES THEREOF” (Migenix Inc., priority 2005, published 2007).

Target: HCV RdRp (NS5B) (UniProt P26663)
Type: biochemical, hepatitis C virus

Chain of HCV RdRp (NS5B) (P26663 whole entry, looked up): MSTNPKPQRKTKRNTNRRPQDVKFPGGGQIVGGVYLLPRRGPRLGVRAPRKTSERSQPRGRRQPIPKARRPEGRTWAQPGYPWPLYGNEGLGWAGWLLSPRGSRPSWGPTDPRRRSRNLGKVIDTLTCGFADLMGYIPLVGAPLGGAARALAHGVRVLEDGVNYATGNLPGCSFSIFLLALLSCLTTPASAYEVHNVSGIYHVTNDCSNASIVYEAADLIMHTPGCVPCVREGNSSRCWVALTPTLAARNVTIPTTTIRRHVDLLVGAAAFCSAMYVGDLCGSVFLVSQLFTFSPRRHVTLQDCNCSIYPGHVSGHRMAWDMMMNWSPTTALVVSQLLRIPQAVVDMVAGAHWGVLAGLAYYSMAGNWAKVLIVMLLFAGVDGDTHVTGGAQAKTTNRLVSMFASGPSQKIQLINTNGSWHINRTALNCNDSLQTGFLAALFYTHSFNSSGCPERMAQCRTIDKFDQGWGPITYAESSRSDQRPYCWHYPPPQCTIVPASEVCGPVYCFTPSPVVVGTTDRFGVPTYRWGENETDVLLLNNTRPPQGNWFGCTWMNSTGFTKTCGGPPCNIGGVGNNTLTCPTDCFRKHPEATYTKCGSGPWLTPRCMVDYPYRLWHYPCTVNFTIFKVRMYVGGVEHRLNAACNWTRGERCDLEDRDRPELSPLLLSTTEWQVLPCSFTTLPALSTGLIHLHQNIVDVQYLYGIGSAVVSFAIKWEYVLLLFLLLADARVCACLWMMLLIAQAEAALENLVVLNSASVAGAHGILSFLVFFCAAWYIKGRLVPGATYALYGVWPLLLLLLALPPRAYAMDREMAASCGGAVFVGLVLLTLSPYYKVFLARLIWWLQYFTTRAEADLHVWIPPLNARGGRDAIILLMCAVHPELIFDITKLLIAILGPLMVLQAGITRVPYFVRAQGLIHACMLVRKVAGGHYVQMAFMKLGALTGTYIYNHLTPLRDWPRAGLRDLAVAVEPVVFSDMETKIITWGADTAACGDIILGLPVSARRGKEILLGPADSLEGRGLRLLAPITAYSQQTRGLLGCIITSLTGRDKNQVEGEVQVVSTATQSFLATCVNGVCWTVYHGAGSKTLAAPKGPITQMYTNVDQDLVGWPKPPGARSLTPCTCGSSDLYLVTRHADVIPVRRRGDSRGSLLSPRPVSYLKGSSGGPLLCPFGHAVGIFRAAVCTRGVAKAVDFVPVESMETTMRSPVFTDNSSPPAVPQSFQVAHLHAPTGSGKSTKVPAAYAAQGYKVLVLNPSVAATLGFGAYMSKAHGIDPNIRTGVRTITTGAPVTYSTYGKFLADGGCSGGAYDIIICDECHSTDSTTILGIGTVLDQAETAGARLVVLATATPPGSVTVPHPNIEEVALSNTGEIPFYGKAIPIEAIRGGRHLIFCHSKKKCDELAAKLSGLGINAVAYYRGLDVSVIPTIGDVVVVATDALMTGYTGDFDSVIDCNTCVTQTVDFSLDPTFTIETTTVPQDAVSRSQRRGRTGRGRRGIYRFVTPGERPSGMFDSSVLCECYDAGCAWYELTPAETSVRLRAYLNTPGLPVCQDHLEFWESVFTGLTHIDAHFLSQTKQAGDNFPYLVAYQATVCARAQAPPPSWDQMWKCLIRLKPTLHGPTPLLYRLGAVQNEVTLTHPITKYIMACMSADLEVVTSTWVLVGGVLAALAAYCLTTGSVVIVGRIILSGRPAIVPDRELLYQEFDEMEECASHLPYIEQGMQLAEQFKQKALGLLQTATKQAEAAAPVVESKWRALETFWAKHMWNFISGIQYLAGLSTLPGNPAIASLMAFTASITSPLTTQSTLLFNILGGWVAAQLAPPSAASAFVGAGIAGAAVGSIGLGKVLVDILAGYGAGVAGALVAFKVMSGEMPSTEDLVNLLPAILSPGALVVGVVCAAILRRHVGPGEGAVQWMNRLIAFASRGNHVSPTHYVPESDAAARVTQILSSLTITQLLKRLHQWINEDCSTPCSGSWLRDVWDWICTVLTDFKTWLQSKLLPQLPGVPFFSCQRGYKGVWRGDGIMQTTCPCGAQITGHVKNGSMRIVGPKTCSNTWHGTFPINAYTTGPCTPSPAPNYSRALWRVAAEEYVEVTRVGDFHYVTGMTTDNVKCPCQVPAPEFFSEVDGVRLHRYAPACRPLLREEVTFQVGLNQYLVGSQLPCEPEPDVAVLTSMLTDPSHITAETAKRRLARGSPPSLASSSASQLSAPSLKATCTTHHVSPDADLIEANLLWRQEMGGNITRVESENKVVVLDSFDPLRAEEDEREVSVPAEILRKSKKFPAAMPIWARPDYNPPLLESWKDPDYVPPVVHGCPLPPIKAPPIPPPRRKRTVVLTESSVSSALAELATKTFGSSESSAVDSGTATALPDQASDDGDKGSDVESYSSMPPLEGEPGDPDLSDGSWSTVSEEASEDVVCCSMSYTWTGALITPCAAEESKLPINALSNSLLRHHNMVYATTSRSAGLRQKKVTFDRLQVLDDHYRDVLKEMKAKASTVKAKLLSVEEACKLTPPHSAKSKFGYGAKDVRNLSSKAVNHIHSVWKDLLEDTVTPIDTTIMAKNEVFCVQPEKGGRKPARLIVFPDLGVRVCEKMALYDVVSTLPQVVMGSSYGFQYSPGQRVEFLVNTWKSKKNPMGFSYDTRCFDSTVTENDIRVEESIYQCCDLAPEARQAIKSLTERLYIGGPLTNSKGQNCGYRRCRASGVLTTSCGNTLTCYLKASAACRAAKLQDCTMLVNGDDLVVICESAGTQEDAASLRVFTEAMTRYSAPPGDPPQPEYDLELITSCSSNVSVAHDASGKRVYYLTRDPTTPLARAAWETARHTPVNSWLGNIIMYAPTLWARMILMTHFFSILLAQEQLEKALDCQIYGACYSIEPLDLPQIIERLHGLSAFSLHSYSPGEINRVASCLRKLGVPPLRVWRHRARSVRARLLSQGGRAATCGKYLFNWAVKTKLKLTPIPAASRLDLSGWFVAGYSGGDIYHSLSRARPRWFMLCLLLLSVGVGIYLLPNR

NCCCC[C@H](NC(=O)Nc1ccc(OCc2ccccc2)cc1)C(=O)NCc1ccco1 [Compound 302, (S)-6-AMINO-2-[3-(4-BENZYLOXY-PHENYL)-UREIDO]-HEXANOIC ACID (FURAN-2-YLMETHYL)-AMIDE]
IC50: > 50 µM

NCCCC[C@H](NC(=O)Nc1ccc(OCc2ccccc2)cc1)C(=O)Nc1nc2ccccc2s1 [Compound 303, (S)-6-AMINO-2-[3-(4-BENZYLOXY-PHENYL)-UREIDO]-HEXANOIC ACID BENZOTHIAZOL-2-YLAMIDE]
IC50: > 50 µM

NCc1ccc(CNC(=O)[C@@H](NC(=O)Nc2ccc(OCc3ccccc3)cc2)c2ccccc2)cc1 [Compound 304, (S)-N-(4-AMINOMETHYL-BENZYL)-2-[3-(4-BENZYLOXY-PHENYL)-UREIDO]-2-PHENYL-ACETAMIDE]
IC50: 10 to 50 µM

NCc1ccc(NC(=O)C(NC(=O)Nc2ccc(OCc3ccccc3)cc2)c2ccccc2)cc1 [Compound 305, (S)-NR-(4-AMINOMETHYL-PHENYL)-2-[3-(4-BENZYLOXY-PHENYL)-UREIDO]-2-PHENYL-ACETAMIDE]
IC50: < 10 µM

NCCCC[C@H](NC(=O)Nc1ccc(OCc2ccccc2)cc1)C(=O)Nc1cccc2cc[nH]c12 [Compound 307, (S)-6-AMINO-2-[3-(4-BENZYLOXY-PHENYL)-UREIDO]-HEXANOIC ACID (1H-INDOL-7-YL)-AMIDE]
IC50: 10 to 50 µM

Cc1ccc(NC(=O)[C@H](CCCCO)NC(=O)Nc2ccc(OCc3ccccc3)cc2)cc1 [Compound 309, (S)-2-[3-(4-BENZYLOXY-PHENYL)-UREIDO]-6-HYDROXY-HEXANOIC ACID P-TOLYLAMIDE]
IC50: > 50 µM

NCC(=O)Nc1ccccc1NC(=O)CNC(=O)OCC1c2ccccc2-c2ccccc21 [Compound 311, {[2-(2-AMINO-ACETYLAMINO)-PHENYLCARBAMOYL]-METHYL}-CARBAMIC ACID 9H-FLUOREN-9-YLMETHYL ESTER]
IC50: > 50 µM

NCCC(=O)Nc1ccccc1NC(=O)CNC(=O)OCC1c2ccccc2-c2ccccc21 [Compound 312, {[2-(3-AMINO-PROPIONYLAMINO)-PHENYLCARBAMOYL]-METHYL}-CARBAMIC ACID 9H-FLUOREN-9-YLMETHYL ESTER]
IC50: > 50 µM

NCCCCCCNC(=O)[C@@H](NC(=O)OCC1c2ccccc2-c2ccccc21)c1ccccc1 [Compound 313, (S)-[(6-AMINO-HEXYLCARBAMOYL)-PHENYL-METHYL]-CARBAMIC ACID 9H-FLUOREN-9-YLMETHYL ESTER]
IC50: 10 to 50 µM

NCc1ccc(CNC(=O)[C@@H](NC(=O)OCC2c3ccccc3-c3ccccc32)c2ccccc2)cc1 [Compound 314, (S)-[(4-AMINOMETHYL-BENZYLCARBAMOYL)-PHENYL-METHYL]-CARBAMIC ACID 9H-FLUOREN-9-YLMETHYL ESTER]
IC50: 10 to 50 µM

NCc1ccc(NC(=O)[C@@H](NC(=O)OCC2c3ccccc3-c3ccccc32)c2ccccc2)cc1 [Compound 315, (S)-[(4-AMINOMETHYL-PHENYLCARBAMOYL)-PHENYL-METHYL]-CARBAMIC ACID 9H-FLUOREN-9-YLMETHYL ESTER]
IC50: 10 to 50 µM

Cc1cc(NC(=O)[C@H](CCCCN)NC(=O)Nc2ccc(OCc3ccccc3)cc2)n(-c2ccccc2)n1 [Compound 316, (S)-6-AMINO-2-[3-(4-BENZYLOXY-PHENYL)-UREIDO]-HEXANOIC ACID (5-METHYL-2-PHENYL-2H-PYRAZOL-3-YL)-AMIDE]
IC50: 10 to 50 µM

NCCCC[C@H](NC(=O)Nc1ccc(OCc2ccccc2)cc1)C(=O)Nc1ccc(-n2ccnc2)cc1 [Compound 317, (S)-6-AMINO-2-[3-(4-BENZYLOXY-PHENYL)-UREIDO]-HEXANOIC ACID (4-IMIDAZOL-1-YL-PHENYL)-AMIDE]
IC50: > 50 µM

NCCCC[C@H](NC(=O)Nc1ccc(OCc2ccccc2)cc1)C(=O)N1CCOCC1 [Compound 318, (S)-l -[5-AMINO-1-(MORPHOLINE-4-CARBONYL)-PENTYL]-3-(4-BENZYLOXY-PHENYL)-UREA]
IC50: 10 to 50 µM

NCCCCCCNC(=O)C(NC(=O)Nc1ccc(OCc2ccccc2)cc1)c1ccccc1 [Compound 319, (S)-NR-(6-AMINO-HEXYL)-2-[3-(4-BENZYLOXY-PHENYL)-UREIDO]-2-PHENYL-ACETAMIDE]
IC50: < 10 µM

NCCCCCCNC(=O)C(NC(=O)Nc1ccc(OCc2ccccc2)cc1)c1ccccc1 [Compound 320, (R)-NR-(6-AMINO-HEXYL)-2-[3-(4-BENZYLOXY-PHENYL)-UREIDO]-2-PHENYL-ACETAMIDE]
IC50: < 10 µM

NCCCC[C@H](NC(=O)Nc1ccc(OCc2ccccc2)cc1)C(=O)Nc1cccc2c1CCC2 [Compound 321, (S)-6-AMINO-2-[3-(4-BENZYLOXY-PHENYL)-UREIDO]-HEXANOIC ACID INDAN-4-YLAMIDE]
IC50: < 10 µM

Cc1ccc(NC(=O)[C@H](CCCNC(=O)CN)NC(=O)Nc2ccc(OCc3ccccc3)cc2)cc1 [Compound 322, (S)-5-(2-AMINO-ACETYLAMINO)-2-[3-(4-BENZYLOXY-PHENYL)-UREIDO]-PENTANOIC ACID P-TOLYLAMIDE]
IC50: 10 to 50 µM

NCCCCN(CC(=O)Nc1ccc(C2CCCCC2)cc1)C(=O)Nc1ccc(OCc2ccccc2)cc1 [Compound 323, 2-[1-(4-AMINO-BUTYL)-3-(4-BENZYLOXY-PHENYL)-UREIDO]-N-(4-CYCLOHEXYL-PHENYL)-ACETAMIDE]
IC50: > 50 µM

CC(C)(C)OC(=O)NCC(=O)NCc1ccccc1NC(=O)CNC(=O)OCC1c2ccccc2-c2ccccc21 [Compound 325, ({2-[2-(9H-FLUOREN-9-YLMETHOXYCARBONYLAMINO)-ACETYLAMINO]-BENZYLCARBAMOYL}-METHYL)-CARBAMIC ACID TERT-BUTYL ESTER]
IC50: > 50 µM

Cc1ccc(NC(=O)C(CCCCN)NC(=O)COc2ccc(-c3ccccc3)cc2)cc1 [Compound 326, (S)-6-AMINO-2-[2-(BIPHENYL-4-YLOXY)-ACETYLAMINO]-HEXANOIC ACID P-TOLYLAMIDE]
IC50: > 50 µM

Cc1ccc(NC(=O)[C@H](CCCCN)NC(=O)COc2ccc(I)cc2)cc1 [Compound 327, (S)-6-AMINO-2-[2-(4-IODO-PHENOXY)-ACETYLAMINO]-HEXANOIC ACID P-TOLYLAMIDE]
IC50: > 50 µM

Cc1ccc(NC(=O)[C@H](CCCCN)NC(=O)COc2ccccc2)cc1 [Compound 328, (S)-^6-AMINO-^2-(^2-PHENOXY-ACETYLAMINO)-HEXANOIC ACID P-TOLYLAMIDE]
IC50: > 50 µM

Cc1ccc(NC(=O)[C@H](CCCCN)NC(=O)COc2ccc(F)cc2)cc1 [Compound 329, (S)-6-AMINO-2-[^2-(^4-FLUORO-PHENOXY)-ACETYLAMINO]-HEXANOIC ACID P-TOLYLAMIDE]
IC50: > 50 µM

Cc1ccc(NC(=O)[C@H](CCCCN)NC(=O)COc2cccc(Cl)c2)cc1 [Compound 330, (S)-^6-AMINO-2-[2-(^3-CHLORO-PHENOXY)-ACETYLAMINO]-HEXANOIC ACID P-TOLYLAMIDE]
IC50: > 50 µM

Cc1ccc(NC(=O)[C@H](CCCCN)NC(=O)COc2ccc(Cl)cc2)cc1 [Compound 331, (S)-6-AMINO-2-[2-(4-CHLORO-PHENOXY)-ACETYLAMINO]-HEXANOIC ACID P-TOLYLAMIDE]
IC50: > 50 µM

Cc1ccc(NC(=O)C(CCCCN)NC(=O)COc2cccc(C(F)(F)F)c2)cc1 [Compound 332, (S)-6-AMINO-2-[2-(3-TRIFLUOROMETHYL-PHENOXY)-ACETYLAMINO]-HEXANOIC ACID P-TOLYLAMIDE]
IC50: > 50 µM

Cc1ccc(NC(=O)[C@H](CCCCN)NC(=O)COc2ccc(Oc3ccccc3)cc2)cc1 [Compound 333, (S)-6-AMINO-2-[2-(4-PHENOXY-PHENOXY)-ACETYLAMINO]-HEXANOIC ACID P-TOLYLAMIDE]
IC50: > 50 µM

Cc1ccc(NC(=O)[C@H](CCCCN)NC(=O)CNCCc2ccccc2)cc1 [Compound 334, (S)-6-AMINO-2-(2-PHENETHYLAMINO-ACETYLAMINO)-HEXANOIC ACID P-TOLYLAMIDE]
IC50: > 50 µM

Cc1ccc(NC(=O)C(CCCCN)NC(=O)CNCCc2c[nH]c3ccccc23)cc1 [Compound 335, (S)-6-AMINO-2-{2-[2-(1H-INDOL-3-YL)-ETHYLAMINO]-ACETYLAMINO}-HEXANOIC ACID P-TOLYLAMIDE]
IC50: > 50 µM

Cc1ccc(NC(=O)[C@H](CCCCN)NC(=O)CNC2Cc3ccccc3C2)cc1 [Compound 336, (S)-6-AMINO-2-[2-(INDAN-2-YLAMINO)-ACETYLAMINO]-HEXANOIC ACID P-TOLYLAMIDE]
IC50: > 50 µM

Cc1ccc(NC(=O)[C@H](CCCCN)NC(=O)CNCc2ccccc2)cc1 [Compound 337, (S)-6-AMINO-2-(2-BENZYLAMINO-ACETYLAMINO)-HEXANOIC ACID P-TOLYLAMIDE]
IC50: > 50 µM

Cc1ccc(NC(=O)C(CCCCN)NC(=O)CNCc2ccccc2C)cc1 [Compound 338, (S)-6-AMINO-2-[2-(2-METHYL-BENZYLAMINO)-ACETYLAMINO]-HEXANOIC ACID P-TOLYLAMIDE]
IC50: > 50 µM

Cc1ccc(NC(=O)C(CCCCN)NC(=O)CNCc2cccc(C)c2)cc1 [Compound 339, (S)-6-AMINO-2-[2-(3-METHYL-BENZYLAMINO)-ACETYLAMINO]-HEXANOIC ACID P-TOLYLAMIDE]
IC50: > 50 µM

Cc1ccc(CNCC(=O)NC(CCCCN)C(=O)Nc2ccc(C)cc2)cc1 [Compound 340, (S)-6-AMINO-2-[2-(4-METHYL-BENZYLAMINO)-ACETYLAMINO]-HEXANOIC ACID P-TOLYLAMIDE]
IC50: > 50 µM

COc1ccccc1CNCC(=O)N[C@@H](CCCCN)C(=O)Nc1ccc(C)cc1 [Compound 341, (S)-6-AMINO-2-[2-(2-METHOXY-BENZYLAMINO)-ACETYLAMINO]-HEXANOIC ACID P-TOLYLAMIDE]
IC50: > 50 µM

COc1cccc(CNCC(=O)N[C@@H](CCCCN)C(=O)Nc2ccc(C)cc2)c1 [Compound 342, (S)-6-AMINO-2-[2-(3-METHOXY-BENZYLAMINO)-ACETYLAMINO]-HEXANOIC ACID P-TOLYLAMIDE]
IC50: > 50 µM

COc1ccc(CNCC(=O)N[C@@H](CCCCN)C(=O)Nc2ccc(C)cc2)cc1 [Compound 343, (S)-6-AMINO-2-[2-(4-METHOXY-BENZYLAMINO)-ACETYLAMINO]-HEXANOIC ACID P-TOLYLAMIDE]
IC50: > 50 µM

Cc1ccc(NC(=O)[C@H](CCCCN)NC(=O)CNCc2ccccc2F)cc1 [Compound 344, (S)-6-AMINO-2-[2-(2-FLUORO-BENZYLAMINO)-ACETYLAMINO]-HEXANOIC ACID P-TOLYLAMIDE]
IC50: > 50 µM

Cc1ccc(NC(=O)[C@H](CCCCN)NC(=O)CNCc2cccc(F)c2)cc1 [Compound 345, (S)-6-AMINO-2-[2-(3-FLUORO-BENZYLAMINO)-ACETYLAMINO]-HEXANOIC ACID P-TOLYLAMIDE]
IC50: > 50 µM
